Results reported in patent publication US20240376091A1, “THIADIAZOLEAMIDE DERIVATIVES AND THEIR APPLICATIONS” (ZHEJIANG UNIVERSITY, priority 2021, published 2024).
pIC50: −log10 of the molar value.

What was measured:
AR = target: T1, AR (Homo sapiens, UniProt P10275, T878A); assay: AR transcriptional activity, LNCaP-ARR2PB-eGFP reporter cells; format: cell-based; conditions: read-out: IC50 AR transcriptional activities
T1 construct: into the androgen-dependent PCa cells (LNCaP); endogenous in cells; host or cells: LNCaP-ARR2PB-eGFP
T1 sequence (P10275 1-920 T878A): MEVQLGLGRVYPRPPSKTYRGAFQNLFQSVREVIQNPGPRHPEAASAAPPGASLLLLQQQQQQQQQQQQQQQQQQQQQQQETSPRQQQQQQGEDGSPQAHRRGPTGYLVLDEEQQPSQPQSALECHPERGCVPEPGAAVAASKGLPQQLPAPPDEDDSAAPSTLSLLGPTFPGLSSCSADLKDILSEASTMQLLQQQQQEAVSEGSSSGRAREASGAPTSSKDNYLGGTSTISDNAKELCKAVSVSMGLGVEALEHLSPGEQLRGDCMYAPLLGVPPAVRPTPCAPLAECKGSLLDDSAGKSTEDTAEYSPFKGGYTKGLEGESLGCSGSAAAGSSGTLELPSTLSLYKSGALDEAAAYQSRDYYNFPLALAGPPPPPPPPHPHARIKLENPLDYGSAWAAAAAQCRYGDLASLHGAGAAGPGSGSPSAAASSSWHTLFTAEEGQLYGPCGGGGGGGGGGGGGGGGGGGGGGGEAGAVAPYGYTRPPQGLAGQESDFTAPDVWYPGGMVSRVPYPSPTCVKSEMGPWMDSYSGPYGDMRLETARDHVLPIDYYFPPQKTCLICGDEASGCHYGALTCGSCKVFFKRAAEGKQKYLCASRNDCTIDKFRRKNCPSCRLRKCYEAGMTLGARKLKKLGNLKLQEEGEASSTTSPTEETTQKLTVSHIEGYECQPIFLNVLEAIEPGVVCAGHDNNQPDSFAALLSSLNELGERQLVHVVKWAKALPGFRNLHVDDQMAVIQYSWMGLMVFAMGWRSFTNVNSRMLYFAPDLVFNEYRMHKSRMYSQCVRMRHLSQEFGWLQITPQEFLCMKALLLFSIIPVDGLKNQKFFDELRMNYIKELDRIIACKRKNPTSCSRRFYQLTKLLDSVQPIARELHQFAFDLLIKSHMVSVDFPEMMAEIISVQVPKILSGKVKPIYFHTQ
Excerpt: Detection principles: We conducted a stable transfection of promoter ARR2PB known for its strong AR responsiveness, into the androgen-dependent PCa cells (LNCaP). The expression of enhanced green fluorescent protein (eGFP) is depending on the degree of activation of AR. Therefore, LNCaP-ARR2PB-eGFP cell line could quantitatively determine the AR antagonistic activities of the compounds by evaluating the expression of eGFP.

LNCaP xenograft = LNCaP xenograft model in vivo; conditions: intratumor injection 2.5 mg/kg/week
Experimental: Methods: LNCaP cells were injected to the Male CB17 SCID mice (6-8 weeks old). Once tumor size reached target value, the mice were randomized into three groups with 6-8 mice per group. […] The mice weight and tumor volume were periodically recorded. Finally, the tumors were harvested.

pIC50 (AR)	Structure (SMILES)	body weight (LNCaP xenograft)
4.57	COc1cccc(-c2coc(C(=O)Nc3nc(CN4CCOCC4)ns3)c2)c1 [Compound G-26, 4-(3-Methoxyphenyl)-N-(3-(morpholinomethyl)-1,2,4-thiadiazol-5-yl)furan-2-carboxamide]	
4.58	CN1CCN(Cc2nsc(NC(=O)c3cc(-c4cccc(OC(F)(F)F)c4)co3)n2)CC1 [Compound G-27]	
4.41	CN1CCN(Cc2nsc(NC(=O)c3cc(-c4cccc(OC(F)F)c4)co3)n2)CC1 [Compound G-28, 4-(3-(Difluoromethoxy)phenyl)-N-(3-((4-methylpiperazin-1-yl)methyl)-1,2,4-thiadiazol-5-yl)furan-2-carboxamide]	
	CNC(=O)c1ccc(N2C(=S)N(c3ccc(C#N)c(C(F)(F)F)c3)C(=O)C2(C)C)cc1F [Enzalutamide, reference compound]	no significant loss of body weight
